Data from patent publication US9611249B2, “1H-indazole-3-carboxamide compounds as glycogen synthase kinase 3 beta inhibitors” (AZIENDE CHIMICHE RIUNITE ANGELINI FRANCESCO A.C.R.A.F. …, priority 2012, dated 2017).
pIC50: −log10 of the molar value.

Key:
Assay type in all cases: biochemical
[1] = molecular target: human GSK-3β (Homo sapiens (Human), UniProt P49841); assay: Activity on human GSK-3β, LANCE substrate phosphorylation assay; conditions: for inhibition at 10 µM: in duplicate, first screening assay; for pIC50: compounds 1 to 15, LANCE assay, five concentrations 100 μM to 10 nM
human GSK-3β, sequence (P49841 whole entry): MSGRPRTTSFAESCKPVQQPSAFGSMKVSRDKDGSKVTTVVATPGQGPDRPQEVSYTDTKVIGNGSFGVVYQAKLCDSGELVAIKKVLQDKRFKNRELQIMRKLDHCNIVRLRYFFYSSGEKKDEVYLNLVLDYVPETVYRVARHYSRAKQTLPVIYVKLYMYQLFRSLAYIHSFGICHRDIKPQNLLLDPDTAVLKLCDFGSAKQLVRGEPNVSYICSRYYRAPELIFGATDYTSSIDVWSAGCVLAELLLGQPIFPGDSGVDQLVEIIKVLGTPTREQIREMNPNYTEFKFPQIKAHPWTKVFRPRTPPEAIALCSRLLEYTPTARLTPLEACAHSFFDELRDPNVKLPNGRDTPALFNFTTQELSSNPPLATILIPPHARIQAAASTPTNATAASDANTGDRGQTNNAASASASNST
Protocol: Activity on human GSK-3β was assessed using the following methods (according to Meijer et al., Chem. Biol., 2003-10:1255-1266).
In a first screening assay, compounds were tested in duplicate at a concentration of 10 μM.
Human recombinant enzyme GSK-3β was incubated for 90 minutes at 22° C. in the presence of compounds or vehicle in a reaction buffer containing ATP plus 100 nM unphosphorylated specific substrate peptide (Ulight-[…] K-amide). Substrate phosphorylation was measured by LANCE technology (PerkinElmer, Conn., USA).
In a second assay, the same compounds were assayed at five concentrations ranging from 100 μM to 10 nM with ten-fold dilutions in duplicate.
The IC50 values (concentration causing a half maximal inhibition of control specific activity), reported in table 4, were determined by non-linear regression analysis of the inhibition curves generated with mean replicate values using Hill equation curve fitting.

[2] = molecular target: c-Met kinase (h) (Homo sapiens (Human), UniProt P08581); assay: Kinase selectivity panel: c-Met kinase (h); conditions: 10 μM in duplicate, read-out: % inhibition of control values
Protocol: (§1) (a) Compounds 1 and 2 were tested against a panel of 60 kinases in order to assess their selectivity. The assays were chosen taking into consideration the diversity of assay families.
(§2) Tested kinases were representative of following kinase sub-families: • protein-serine/threonine kinases; • protein-tyrosine kinases; • other kinases; and • atypical kinases.
(§3) Human recombinant kinases were incubated in the presence of specific peptide substrates plus ATP for different times (10, 15, 30, 60 or 90 minutes) at 22° C. Phosphorylated substrate was detected by LANCE or HTRF technology (CISBIO, MA, USA). The compounds were tested at 10 μM in duplicate.
(§4) The results are expressed as a percentage of inhibition of control specific activity obtained in the presence of the test compounds and are reported in the following Table 5.
(§5) (b) Compounds 3, 8, 29 and 31 were tested against the same panel of 60 kinases under the same conditions described above for compounds 1 and 2.
(§6) The results are expressed as a percent of inhibition of control specific activity obtained in the presence of the test compounds and are reported in the following Table 6.

[3] = molecular target: EphA4 kinase (h) (Homo sapiens (Human), UniProt P54764); assay: Kinase selectivity panel: EphA4 kinase (h); conditions: 10 μM in duplicate, read-out: % inhibition of control values
Protocol: as §1, §2, §3, §4, §5, §6

[4] = molecular target: FGFR4 kinase (h) (Homo sapiens (Human), UniProt P22455); assay: Kinase selectivity panel: FGFR4 kinase (h); conditions: 10 μM in duplicate, read-out: % inhibition of control values
Protocol: as §1, §2, §3, §4, §5, §6

[5] = molecular target: JAK1 (h) (Homo sapiens (Human), UniProt P23458); assay: Kinase selectivity panel: JAK1 (h); conditions: 10 μM in duplicate, read-out: % inhibition of control values
JAK1 (h), sequence (P23458 whole entry): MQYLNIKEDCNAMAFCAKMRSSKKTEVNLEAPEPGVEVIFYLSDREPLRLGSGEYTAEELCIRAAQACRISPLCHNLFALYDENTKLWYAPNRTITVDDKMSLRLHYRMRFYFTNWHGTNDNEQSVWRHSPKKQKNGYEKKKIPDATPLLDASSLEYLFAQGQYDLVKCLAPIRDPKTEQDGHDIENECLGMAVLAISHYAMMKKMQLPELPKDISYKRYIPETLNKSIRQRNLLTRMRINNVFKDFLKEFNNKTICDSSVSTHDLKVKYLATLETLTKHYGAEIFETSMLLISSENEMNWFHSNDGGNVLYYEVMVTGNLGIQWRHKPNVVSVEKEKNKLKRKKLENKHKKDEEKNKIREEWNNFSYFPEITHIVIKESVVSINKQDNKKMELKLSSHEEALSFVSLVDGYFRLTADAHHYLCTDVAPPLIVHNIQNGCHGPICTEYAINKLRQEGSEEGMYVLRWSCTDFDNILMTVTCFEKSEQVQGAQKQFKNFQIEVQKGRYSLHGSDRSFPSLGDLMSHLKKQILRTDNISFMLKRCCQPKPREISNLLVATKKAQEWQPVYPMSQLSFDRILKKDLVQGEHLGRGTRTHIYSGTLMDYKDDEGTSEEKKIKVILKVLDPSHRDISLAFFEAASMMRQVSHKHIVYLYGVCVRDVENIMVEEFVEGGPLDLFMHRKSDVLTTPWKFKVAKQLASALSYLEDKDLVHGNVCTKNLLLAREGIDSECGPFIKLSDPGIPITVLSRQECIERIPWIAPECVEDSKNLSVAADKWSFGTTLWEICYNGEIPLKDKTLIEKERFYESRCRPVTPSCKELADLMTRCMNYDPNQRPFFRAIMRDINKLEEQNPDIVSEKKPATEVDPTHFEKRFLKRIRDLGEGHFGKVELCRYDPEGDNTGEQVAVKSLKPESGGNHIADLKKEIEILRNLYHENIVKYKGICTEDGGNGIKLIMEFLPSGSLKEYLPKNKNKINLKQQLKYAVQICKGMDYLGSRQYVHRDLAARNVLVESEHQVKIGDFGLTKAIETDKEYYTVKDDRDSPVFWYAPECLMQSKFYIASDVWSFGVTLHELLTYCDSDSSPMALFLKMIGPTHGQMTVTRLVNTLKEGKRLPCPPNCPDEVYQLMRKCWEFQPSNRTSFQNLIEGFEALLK
Protocol: as §1, §2, §3, §4, §5, §6

[6] = molecular target: JAK2 (h) (Homo sapiens (Human), UniProt O60674); assay: Kinase selectivity panel: JAK2 (h); conditions: 10 μM in duplicate, read-out: % inhibition of control values
Protocol: as §1, §2, §3, §4, §5, §6

[7] = molecular target: Src kinase (h) (Homo sapiens (Human), UniProt P12931); assay: Kinase selectivity panel: Src kinase (h); conditions: 10 μM in duplicate, read-out: % inhibition of control values
Protocol: as §1, §2, §3, §4, §5, §6

[8] = molecular target: DYRK1a (h) (Homo sapiens (Human), UniProt Q13627); assay: Kinase selectivity panel: DYRK1a (h); conditions: 10 μM in duplicate, read-out: % inhibition of control values
Protocol: as §1, §2, §3, §4, §5, §6

[9] = molecular target: CDC2/CDK1 (h) (cycB) (Homo sapiens (Human), UniProt P06493); assay: Kinase selectivity panel: CDC2/CDK1 (h) (cycB); conditions: 10 μM in duplicate, read-out: % inhibition of control values
Protocol: as §1, §2, §3, §4, §5, §6

[10] = molecular target: ERK2 (h) (P42mapk) (Homo sapiens (Human), UniProt P28482); assay: Kinase selectivity panel: ERK2 (h) (P42mapk); conditions: 10 μM in duplicate, read-out: % inhibition of control values
Protocol: as §1, §2, §3, §4, §5, §6

[11] = molecular target: p38gamma kinase (h) (Homo sapiens (Human), UniProt P53778); assay: Kinase selectivity panel: p38gamma kinase (h); conditions: 10 μM in duplicate, read-out: % inhibition of control values
Protocol: as §1, §2, §3, §4, §5, §6

[12] = molecular target: Pim2 kinase (h) (Homo sapiens (Human), UniProt Q9P1W9); assay: Kinase selectivity panel: Pim2 kinase (h); conditions: 10 μM in duplicate, read-out: % inhibition of control values
Pim2 kinase (h), sequence (Q9P1W9 whole entry): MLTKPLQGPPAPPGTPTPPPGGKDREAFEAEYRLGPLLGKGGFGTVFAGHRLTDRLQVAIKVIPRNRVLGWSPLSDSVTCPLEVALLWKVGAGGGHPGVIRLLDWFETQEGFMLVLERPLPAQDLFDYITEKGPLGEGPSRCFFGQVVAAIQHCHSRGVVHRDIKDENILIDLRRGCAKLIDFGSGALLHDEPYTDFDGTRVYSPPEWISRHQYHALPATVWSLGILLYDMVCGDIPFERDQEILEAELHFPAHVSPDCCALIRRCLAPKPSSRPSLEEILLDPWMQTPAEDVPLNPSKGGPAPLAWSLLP
Protocol: as §1, §2, §3, §4, §5, §6

[13] = molecular target: PhKgamma 2 (h) (Homo sapiens (Human), UniProt P15735); assay: Kinase selectivity panel: PhKgamma 2 (h); conditions: 10 μM in duplicate, read-out: % inhibition of control values
PhKgamma 2 (h), sequence (P15735 whole entry): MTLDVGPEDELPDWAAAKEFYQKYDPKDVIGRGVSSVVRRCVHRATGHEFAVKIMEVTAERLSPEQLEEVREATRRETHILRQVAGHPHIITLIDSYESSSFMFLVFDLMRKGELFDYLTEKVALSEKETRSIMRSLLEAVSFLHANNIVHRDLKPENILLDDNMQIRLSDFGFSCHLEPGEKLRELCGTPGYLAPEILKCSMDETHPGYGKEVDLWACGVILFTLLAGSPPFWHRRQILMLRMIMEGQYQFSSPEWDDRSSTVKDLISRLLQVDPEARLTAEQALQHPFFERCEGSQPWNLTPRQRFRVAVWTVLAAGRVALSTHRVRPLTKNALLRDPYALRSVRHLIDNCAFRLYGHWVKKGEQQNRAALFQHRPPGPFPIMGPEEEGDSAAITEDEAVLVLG
Protocol: as §1, §2, §3, §4, §5, §6

[14] = molecular target: Pim1 kinase (h) (Homo sapiens (Human), UniProt P11309); assay: Kinase selectivity panel: Pim1 kinase (h); conditions: 10 μM in duplicate, read-out: % inhibition of control values
Protocol: as §1, §2, §3, §4, §5, §6

[15] = molecular target: smMLCK (h) (MYLK) (Homo sapiens (Human), UniProt Q15746); assay: Kinase selectivity panel: smMLCK (h) (MYLK); conditions: 10 μM in duplicate, read-out: % inhibition of control values
smMLCK (h) (MYLK), sequence (Q15746 whole entry): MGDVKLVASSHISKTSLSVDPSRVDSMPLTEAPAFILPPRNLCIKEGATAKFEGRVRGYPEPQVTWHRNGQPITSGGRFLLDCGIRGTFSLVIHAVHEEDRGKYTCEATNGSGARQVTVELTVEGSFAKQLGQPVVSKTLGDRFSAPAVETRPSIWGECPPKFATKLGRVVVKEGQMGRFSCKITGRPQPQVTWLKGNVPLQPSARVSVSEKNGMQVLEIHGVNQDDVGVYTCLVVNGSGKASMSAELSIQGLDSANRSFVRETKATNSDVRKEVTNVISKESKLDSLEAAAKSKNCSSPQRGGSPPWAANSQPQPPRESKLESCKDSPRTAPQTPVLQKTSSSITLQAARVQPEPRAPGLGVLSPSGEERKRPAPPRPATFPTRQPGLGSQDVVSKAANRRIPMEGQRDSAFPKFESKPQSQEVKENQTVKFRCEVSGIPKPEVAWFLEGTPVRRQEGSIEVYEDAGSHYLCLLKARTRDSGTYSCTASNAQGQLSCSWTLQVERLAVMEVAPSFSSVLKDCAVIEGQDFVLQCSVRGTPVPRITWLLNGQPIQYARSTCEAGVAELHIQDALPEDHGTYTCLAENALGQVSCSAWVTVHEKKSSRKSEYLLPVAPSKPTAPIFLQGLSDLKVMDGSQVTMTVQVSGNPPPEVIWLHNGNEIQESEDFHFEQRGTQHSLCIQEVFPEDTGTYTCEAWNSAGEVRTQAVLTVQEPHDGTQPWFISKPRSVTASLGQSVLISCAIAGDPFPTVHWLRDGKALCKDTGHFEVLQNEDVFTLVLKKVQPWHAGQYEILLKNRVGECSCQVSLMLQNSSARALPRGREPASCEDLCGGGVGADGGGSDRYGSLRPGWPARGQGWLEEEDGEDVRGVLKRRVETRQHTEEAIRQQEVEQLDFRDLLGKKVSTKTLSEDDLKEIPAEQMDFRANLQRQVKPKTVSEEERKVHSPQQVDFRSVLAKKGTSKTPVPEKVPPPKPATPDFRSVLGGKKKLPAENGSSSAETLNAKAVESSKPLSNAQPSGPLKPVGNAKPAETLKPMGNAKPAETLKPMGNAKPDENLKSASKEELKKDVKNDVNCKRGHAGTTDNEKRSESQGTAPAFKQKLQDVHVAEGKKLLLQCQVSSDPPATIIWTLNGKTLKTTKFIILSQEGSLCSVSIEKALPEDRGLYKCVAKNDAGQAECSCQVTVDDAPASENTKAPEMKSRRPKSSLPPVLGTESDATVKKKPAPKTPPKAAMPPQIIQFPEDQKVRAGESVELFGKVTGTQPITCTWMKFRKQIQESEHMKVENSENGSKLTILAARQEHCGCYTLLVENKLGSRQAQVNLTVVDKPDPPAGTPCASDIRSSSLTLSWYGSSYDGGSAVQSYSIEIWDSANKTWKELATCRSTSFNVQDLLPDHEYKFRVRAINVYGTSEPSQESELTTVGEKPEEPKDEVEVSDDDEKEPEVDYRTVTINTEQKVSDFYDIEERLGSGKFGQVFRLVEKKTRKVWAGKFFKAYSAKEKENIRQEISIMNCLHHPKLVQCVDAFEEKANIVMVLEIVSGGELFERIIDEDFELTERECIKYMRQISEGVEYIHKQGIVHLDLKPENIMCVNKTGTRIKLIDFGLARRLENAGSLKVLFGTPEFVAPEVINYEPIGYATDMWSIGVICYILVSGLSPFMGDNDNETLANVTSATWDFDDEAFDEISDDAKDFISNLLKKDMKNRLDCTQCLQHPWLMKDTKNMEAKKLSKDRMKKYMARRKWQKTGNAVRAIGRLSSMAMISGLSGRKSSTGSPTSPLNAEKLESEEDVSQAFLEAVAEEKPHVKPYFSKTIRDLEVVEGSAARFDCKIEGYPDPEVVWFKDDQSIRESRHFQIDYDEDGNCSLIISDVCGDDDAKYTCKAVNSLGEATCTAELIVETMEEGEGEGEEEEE
Protocol: as §1, §2, §3, §4, §5, §6

[16] = molecular target: GRK3/BARK2 (h) (ADRBK2) (Homo sapiens (Human), UniProt P35626); assay: Kinase selectivity panel: GRK3/BARK2 (h) (ADRBK2); conditions: 10 μM in duplicate, read-out: % inhibition of control values
GRK3/BARK2 (h) (ADRBK2), sequence (P35626 whole entry): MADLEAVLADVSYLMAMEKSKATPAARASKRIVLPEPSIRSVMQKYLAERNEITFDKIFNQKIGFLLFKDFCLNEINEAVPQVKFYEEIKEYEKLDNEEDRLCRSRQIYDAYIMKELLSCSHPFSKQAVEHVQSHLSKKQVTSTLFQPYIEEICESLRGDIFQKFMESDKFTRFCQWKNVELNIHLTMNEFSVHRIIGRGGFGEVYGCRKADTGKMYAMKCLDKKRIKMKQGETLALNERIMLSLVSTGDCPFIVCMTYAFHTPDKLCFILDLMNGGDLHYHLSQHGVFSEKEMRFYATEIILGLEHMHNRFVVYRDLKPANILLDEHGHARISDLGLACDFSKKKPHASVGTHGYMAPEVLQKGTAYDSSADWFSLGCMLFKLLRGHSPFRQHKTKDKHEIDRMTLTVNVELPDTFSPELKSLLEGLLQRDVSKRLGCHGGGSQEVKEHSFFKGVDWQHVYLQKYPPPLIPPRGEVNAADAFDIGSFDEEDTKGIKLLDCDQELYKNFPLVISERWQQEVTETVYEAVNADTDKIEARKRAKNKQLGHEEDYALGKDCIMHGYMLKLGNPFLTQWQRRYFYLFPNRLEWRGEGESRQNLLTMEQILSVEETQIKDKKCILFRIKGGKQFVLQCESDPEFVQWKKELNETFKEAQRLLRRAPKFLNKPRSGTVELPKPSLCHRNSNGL
Protocol: as §1, §2, §3, §4, §5, §6

[17] = molecular target: MSK1 (h) (Homo sapiens (Human), UniProt O75582); assay: Kinase selectivity panel: MSK1 (h); conditions: 10 μM in duplicate, read-out: % inhibition of control values
Protocol: as §1, §2, §3, §4, §5, §6

[18] = molecular target: PDK1 (h) (Homo sapiens (Human), UniProt O15530); assay: Kinase selectivity panel: PDK1 (h); conditions: 10 μM in duplicate, read-out: % inhibition of control values
Protocol: as §1, §2, §3, §4, §5, §6

[19] = molecular target: PKCalpha (h) (Homo sapiens (Human), UniProt P17252); assay: Kinase selectivity panel: PKCalpha (h); conditions: 10 μM in duplicate, read-out: % inhibition of control values
Protocol: as §1, §2, §3, §4, §5, §6

[20] = molecular target: PKCgamma (h) (Homo sapiens (Human), UniProt P05129); assay: Kinase selectivity panel: PKCgamma (h); conditions: 10 μM in duplicate, read-out: % inhibition of control values
Protocol: as §1, §2, §3, §4, §5, §6

[21] = molecular target: HGK (h) (MAP4K4) (Homo sapiens (Human), UniProt O95819); assay: Kinase selectivity panel: HGK (h) (MAP4K4); conditions: 10 μM in duplicate, read-out: % inhibition of control values
Protocol: as §1, §2, §3, §4, §5, §6

[22] = molecular target: MEK1/MAP2K1 (h) (Homo sapiens (Human), UniProt Q02750); assay: Kinase selectivity panel: MEK1/MAP2K1 (h); conditions: 10 μM in duplicate, read-out: % inhibition of control values
Protocol: as §1, §2, §3, §4, §5, §6

[23] = molecular target: TAOK2 (TAO1) (h) (Homo sapiens (Human), UniProt Q9UL54); assay: Kinase selectivity panel: TAOK2 (TAO1) (h); conditions: 10 μM in duplicate, read-out: % inhibition of control values
Protocol: as §1, §2, §3, §4, §5, §6

[24] = molecular target: MYT1 kinase (h) (Homo sapiens (Human), UniProt Q99640); assay: Kinase selectivity panel: MYT1 kinase (h); conditions: 10 μM in duplicate, read-out: % inhibition of control values
Protocol: as §1, §2, §3, §4, §5, §6

[25] = molecular target: NEK1 (h) (Homo sapiens (Human), UniProt Q96PY6); assay: Kinase selectivity panel: NEK1 (h); conditions: 10 μM in duplicate, read-out: % inhibition of control values
Protocol: as §1, §2, §3, §4, §5, §6

[26] = molecular target: AurA/Aur2 kinase (h) (Homo sapiens (Human), UniProt O14965); assay: Kinase selectivity panel: AurA/Aur2 kinase (h); conditions: 10 μM in duplicate, read-out: % inhibition of control values
Protocol: as §1, §2, §3, §4, §5, §6

[27] = molecular target: AurB/Aur1 kinase (h) (Homo sapiens (Human), UniProt Q96GD4); assay: Kinase selectivity panel: AurB/Aur1 kinase (h); conditions: 10 μM in duplicate, read-out: % inhibition of control values
Protocol: as §1, §2, §3, §4, §5, §6

[28] = molecular target: mTOR kinase (h) (FRAP1) (Homo sapiens (Human), UniProt P42345); assay: Kinase selectivity panel: mTOR kinase (h) (FRAP1); conditions: 10 μM in duplicate, read-out: % inhibition of control values
Protocol: as §1, §2, §3, §4, §5, §6

Row | SMILES | inhibition at 10 µM [1] [%] | pIC50 [1] | inhibition at 10 µM [2] [%] | inhibition at 10 µM [3] [%] | inhibition at 10 µM [4] [%] | inhibition at 10 µM [5] [%] | inhibition at 10 µM [6] [%] | inhibition at 10 µM [7] [%] | inhibition at 10 µM [8] [%] | inhibition at 10 µM [9] [%] | inhibition at 10 µM [10] [%] | inhibition at 10 µM [11] [%] | inhibition at 10 µM [12] [%] | inhibition at 10 µM [13] [%] | inhibition at 10 µM [14] [%] | inhibition at 10 µM [15] [%] | inhibition at 10 µM [16] [%] | inhibition at 10 µM [17] [%] | inhibition at 10 µM [18] [%] | inhibition at 10 µM [19] [%] | further results
1 | COc1ccc2[nH]nc(C(=O)NCC3CCN(CC(=O)O)CC3)c2c1 [Compound 1, [4-({[(5-methoxy-1H-indazol-3-yl)-carbonyl]amino}methyl)piperidin-1-yl]acetic acid] | 92 | 6.17 | 3 | 0 | 0 | 0 | 0 | 1 | 76 | 7 | 58 | 0 | 3 | 30 | 0 | 0 | 0 | 7 | 6 | 0 | inhibition at 10 µM [20]: 3%; inhibition at 10 µM [21]: 8%; inhibition at 10 µM [22]: 24%; inhibition at 10 µM [23]: 3%; inhibition at 10 µM [24]: 0%; inhibition at 10 µM [25]: 0%; inhibition at 10 µM [26]: 7%; inhibition at 10 µM [27]: 0%; inhibition at 10 µM [28]: 2%
2 | COCCN1CCC(CNC(=O)c2n[nH]c3ccc(OC)cc23)CC1 [Compound 2, 5-methoxy-N-{[1-(2-methoxyethyl)-piperidin-4-yl]methyl}-1H-indazole-3-carboxamide] | 85 | 6.06 | 0 | 0 | 0 | 0 | 0 | 6 | 56 | 0 | 46 | 0 | 4 | 1 | 2 | 8 | 0 | 16 | 6 | 0 | inhibition at 10 µM [20]: 0%; inhibition at 10 µM [21]: 23%; inhibition at 10 µM [22]: 9%; inhibition at 10 µM [23]: 26%; inhibition at 10 µM [24]: 1%; inhibition at 10 µM [25]: 0%; inhibition at 10 µM [26]: 1%; inhibition at 10 µM [27]: 6%; inhibition at 10 µM [28]: 2%
